Patent US10513523B2, “Imidazopyrazines and pyrazolopyrimidines and their use as AMPA receptor modulators” (Janssen Pharmaceutica NV, priority 2015, dated 2019)

target: GluA1o-γ8 (GRIA1o-CACNG8 fusion construct; TARP γ8 dependent AMPA receptor) (Homo sapiens (Human), UniProt P42261+Q8WXS5); assay: Calcium flux assay (FLIPR), inhibition of glutamate response of GluA1o-γ8 channel; assay type: cell-based; settings: HEK293 cells stably expressing GRIA1o-CACNG8 fusion; 15 μM glutamate; pIC50 = negative log of IC50 in molar; read-out: GluR1-γ8 (pIC50) (converted)
Text: This assay was used to test compounds for their ability to inhibit TARP γ8 dependent AMPA receptor activity. The AMPA receptor is a non-selective cation channel activated by glutamate. Ionotropic glutamate receptors normally desensitize too rapidly to allow detectable calcium influx in a FLIPR assay (Strange et al. (2006). “Functional characterisation of homomeric ionotropic glutamate receptors GluR1-GluR6 in a fluorescence-based high throughput screening assay.” Comb Chem High Throughput Screen 9(2): 147-158). But, this desensitization is incomplete, and a substantial steady-state current remains in the sustained presence of glutamate (Cho et al. (2007). “Two families of TARP isoforms that have distinct effects on the kinetic properties of AMPA receptors and synaptic currents.” Neuron 55(6): 890-904).
An in vitro assay was used to determine the potency of test compounds as inhibitors of the glutamate response of the channel formed by GluA1o-γ8. To ensure a 1:1 stoichiometry of GluA10 and γ8 subunits in the expressed channel, a fusion of the cDNAs for GRIA1o and CACNG8 was used. Following Shi et al (2009) “The stoichiometry of AMPA receptors and TARPs varies by neuronal cell type.” Neuron 62(5): […]), the C-terminus of the cDNA for GRI1o was fused to the N-terminus of the cDNA for γ8. The linker sequence was […]. […] A clonal cell line in HEK293 cells stably expressing this construct, with a geneticin selection marker, was generated for use in this assay. Cell expressing the GRIA1o-CACNG8 fusion construct were grown in a monolayer in 96- or 384-well microtiter plates. They were washed with assay buffer (135 mM NaCl, 4 mM KCl, 3 mM CaCl2, 1 mM MgCl2, 5 mM glucose, 10 mM HEPES, pH 7.4, 300 mOs) using a Biotek EL405 plate washer. The cells were then loaded with a calcium-sensitive dye (Calcium-5 or Calcium-6, Molecular Devices) and the test compounds at a range of concentrations. Calcium flux following the addition of 15 μM glutamate was monitored using a Molecular Devices FLIPR Tetra.
The fluorescence in each well was normalized to the fluorescence of negative and positive control wells. […] The responses to glutamate as functions of the test compound concentrations were fitted to a four-parameter logistic function. The fitted parameter corresponding to the midpoint was taken to be the potency of inhibition of the compound.

GluA1o-γ8 (GRIA1o-CACNG8 fusion construct; TARP γ8 dependent AMPA receptor), sequence (P42261 other isoform, or with tags, fused parts or gaps): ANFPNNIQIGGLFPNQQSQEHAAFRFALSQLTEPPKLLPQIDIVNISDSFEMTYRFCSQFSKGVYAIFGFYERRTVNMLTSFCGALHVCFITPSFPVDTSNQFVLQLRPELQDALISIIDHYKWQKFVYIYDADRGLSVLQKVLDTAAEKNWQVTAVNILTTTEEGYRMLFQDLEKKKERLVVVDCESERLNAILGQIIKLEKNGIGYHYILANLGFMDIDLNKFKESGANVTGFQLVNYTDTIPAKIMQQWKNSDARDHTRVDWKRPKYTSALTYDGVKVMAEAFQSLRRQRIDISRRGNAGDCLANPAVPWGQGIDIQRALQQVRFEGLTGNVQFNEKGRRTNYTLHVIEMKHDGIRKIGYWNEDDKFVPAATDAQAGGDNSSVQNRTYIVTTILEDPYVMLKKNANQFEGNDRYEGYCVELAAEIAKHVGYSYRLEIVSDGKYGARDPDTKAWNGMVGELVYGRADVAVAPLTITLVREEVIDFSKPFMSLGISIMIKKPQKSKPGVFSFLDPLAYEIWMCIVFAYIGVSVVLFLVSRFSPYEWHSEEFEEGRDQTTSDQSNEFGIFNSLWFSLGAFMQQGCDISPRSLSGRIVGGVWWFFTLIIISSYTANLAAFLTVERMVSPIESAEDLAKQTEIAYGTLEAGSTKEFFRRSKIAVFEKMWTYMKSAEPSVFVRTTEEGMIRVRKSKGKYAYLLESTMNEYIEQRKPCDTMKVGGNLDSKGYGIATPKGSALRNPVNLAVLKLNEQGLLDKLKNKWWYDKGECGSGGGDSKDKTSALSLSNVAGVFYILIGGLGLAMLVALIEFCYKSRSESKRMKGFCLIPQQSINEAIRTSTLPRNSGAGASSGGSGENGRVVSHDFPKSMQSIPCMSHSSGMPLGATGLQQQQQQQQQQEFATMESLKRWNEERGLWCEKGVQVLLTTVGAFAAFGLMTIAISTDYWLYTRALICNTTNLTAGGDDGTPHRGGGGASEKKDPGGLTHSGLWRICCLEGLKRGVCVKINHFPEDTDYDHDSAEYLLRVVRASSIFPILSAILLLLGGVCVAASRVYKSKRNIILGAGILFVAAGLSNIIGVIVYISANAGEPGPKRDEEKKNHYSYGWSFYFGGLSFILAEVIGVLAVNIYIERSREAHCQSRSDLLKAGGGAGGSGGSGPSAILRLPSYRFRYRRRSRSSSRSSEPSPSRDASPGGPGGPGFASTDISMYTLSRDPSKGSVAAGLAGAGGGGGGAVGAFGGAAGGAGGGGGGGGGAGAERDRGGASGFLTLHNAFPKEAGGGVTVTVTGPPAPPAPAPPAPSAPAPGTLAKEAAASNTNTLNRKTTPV

IC50 [nM]	SMILES
12.6	O=C1Cc2cc(-c3c(-c4ccc(F)cc4)nc4c(N5CCO[C@@H](C(F)(F)F)C5)nccn34)ccc2N1 (single isomer, unassigned) [Example 48, (R*)-5-[2-(4-Fluorophenyl)-8-[2-(trifluoromethyl)morpholin-4-yl]imidazo[1,2-a]pyrazin-3-yl]indolin-2-one]
3.16	O=C1Cc2cc(-c3c(-c4ccccc4)nn4c(N5CC(F)C5)nccc34)ccc2N1 [Example 200, 5-[7-(3-Fluoroazetidin-1-yl)-2-phenyl-pyrazolo[1,5-c]pyrimidin-3-yl]indolin-2-one]
2	O=S1(=O)Cc2cc(-c3c(-c4ccc(F)cc4)nn4c(N5CCOCC5)nccc34)ccc2N1 [Example 178, 5-[2-(4-Fluorophenyl)-7-morpholino-pyrazolo[1,5-c]pyrimidin-3-yl]-1,3-dihydro-2,1-benzothiazole 2,2-dioxide]
1580	O=c1[nH]c2ccc(-c3c(-c4ccc(F)cc4)nc4c(O)nccn34)cc2[nH]1 [Example 249, 5-[2-(4-Fluorophenyl)-8-hydroxy-imidazo[1,2-a]pyrazin-3-yl]-1,3-dihydrobenzimidazol-2-one]
0.2	O=C1CN(c2nccn3c(-c4ccc5[nH]ncc5c4)c(-c4ccc(F)cc4)nc23)CCN1 [Example 33, 4-[2-(4-Fluorophenyl)-3-(1H-indazol-5-yl)imidazo[1,2-a]pyrazin-8-yl]piperazin-2-one]
0.316	O=c1[nH]c2ccc(-c3c(-c4ccc(F)cc4)nc4c(N5CCOCC5)nccn34)cc2s1 [Example 118, 6-[2-(4-Fluorophenyl)-8-morpholino-imidazo[1,2-a]pyrazin-3-yl]-3H-1,3-benzothiazol-2-one]
1260	Oc1ccc(-c2c(-c3ccc(F)cc3)nc3c(N4CCNCC4)nccn23)cc1 [Example 5, 4-[2-(4-Fluorophenyl)-8-piperazin-1-yl-imidazo[1,2-a]pyrazin-3-yl]phenol]
1.58	CC(=O)N1CCN(c2nccn3c(-c4ccc5[nH]c(=O)[nH]c5c4)c(-c4ccc(F)cc4)nc23)CC1 [Example 14, 5-[8-(4-Acetylpiperazin-1-yl)-2-(4-fluorophenyl)imidazo[1,2-a]pyrazin-3-yl]-1,3-dihydrobenzimidazol-2-one]
12.6	O=C1Cc2cc(-c3c(-c4ccccc4)nn4cnc(C(F)(F)F)cc34)ccc2N1 [Example 222, 5-[2-Phenyl-5-(trifluoromethyl)pyrazolo[1,5-c]pyrimidin-3-yl]indolin-2-one]

The remaining lines, values behind:

SMILES	IC50 [nM]
O=C1Cc2cc(-c3c(-c4ccncc4)nc4c(N5CCC(O)CC5)nccn34)ccc2N1 [Example 215, 5-[8-(4-Hydroxy-1-piperidyl)-2-(4-pyridyl)imidazo[1,2-a]pyrazin-3-yl]indolin-2-one]	39.8
O=C1Nc2ccc(-c3c(-c4ccc(F)cc4)nc4c(N5CCOCC5)nccn34)cc2C1(F)F [Example 136, 3,3-Difluoro-5-[2-(4-fluorophenyl)-8-morpholino-imidazo[1,2-a]pyrazin-3-yl]indolin-2-one]	398
CC(=O)N1CCN(c2nccn3c(-c4ccc5[nH]c(=O)[nH]c5c4)c(-c4ccc(C#N)cc4)nc23)CC1 [Example 106, 4-[8-(4-Acetylpiperazin-1-yl)-3-(2-oxo-1,3-dihydrobenzimidazol-5-yl)imidazo[1,2-a]pyrazin-2-yl]benzonitrile]	5.01
Oc1ccc(-c2c(-c3ccc(F)cc3)nc3c(N4CCCC4)nccn23)cc1 [Example 126, 4-[2-(4-Fluorophenyl)-8-pyrrolidin-1-yl-imidazo[1,2-a]pyrazin-3-yl]phenol]	50.1
CC1(O)CN(c2nccc3c(-c4ccc5c(c4)CC(=O)N5)c(-c4ccc(F)cc4)nn23)C1 [Example 184, 5-[2-(4-Fluorophenyl)-7-(3-hydroxy-3-methyl-azetidin-1-yl)pyrazolo[1,5-c]pyrimidin-3-yl]indolin-2-one]	3.16
CC(C)(C)OC(=O)N1CCN(c2nccn3c(-c4ccc5c(c4)CC(=O)N5)c(Cc4ccccc4)nc23)CC1 [Example 36, tert-Butyl 4-[2-benzyl-3-(2-oxoindolin-5-yl)imidazo[1,2-a]pyrazin-8-yl]piperazine-1-carboxylate]	0.316
O=C1CN(c2nccn3c(-c4ccc5c(c4)CC(=O)N5)c(C(=O)Nc4ccccc4)nc23)CCN1 [Example 143, 3-(2-Oxoindolin-5-yl)-8-(3-oxopiperazin-1-yl)-N-phenyl-imidazo[1,2-a]pyrazine-2-carboxamide]	20
COC1CN(c2nccn3c(-c4ccc5c(c4)CC(=O)N5)c(-c4ccccc4)nc23)C1 [Example 78, 5-[8-(3-Methoxyazetidin-1-yl)-2-phenyl-imidazo[1,2-a]pyrazin-3-yl]indolin-2-one]	2
COc1nccn2c(-c3ccc4[nH]c(=O)[nH]c4c3)c(-c3ccc(F)cc3)nc12 [Example 99, 5-[2-(4-Fluorophenyl)-8-methoxy-imidazo[1,2-a]pyrazin-3-yl]-1,3-dihydrobenzimidazol-2-one]	25.1
Nc1nccn2c(-c3ccc4[nH]c(=O)[nH]c4c3)c(-c3ccc(F)cc3)nc12 [Example 87, 5-[8-Amino-2-(4-fluorophenyl)imidazo[1,2-a]pyrazin-3-yl]-1,3-dihydrobenzimidazol-2-one]	398
CN(c1nccn2c(-c3ccc4c(c3)CC(=O)N4)c(-c3ccc(F)cc3)nc12)C1CC1 [Example 46, 5-[8-[Cyclopropyl(methyl)amino]-2-(4-fluorophenyl)imidazo[1,2-a]pyrazin-3-yl]indolin-2-one]	5.01
CC(C)c1nn2c(N3CCOCC3)ncc(F)c2c1-c1ccc2c(c1)CC(=O)N2 [Example 235, 5-(4-Fluoro-2-isopropyl-7-morpholino-pyrazolo[1,5-c]pyrimidin-3-yl)indolin-2-one]	501
O=C(c1ccccc1)c1nc2c(N3CCOCC3)nccn2c1-c1ccc(O)cc1 [Example 151, [3-(4-Hydroxyphenyl)-8-morpholino-imidazo[1,2-a]pyrazin-2-yl]-phenyl-methanone]	12.6
O=C1Cc2cc(-c3c(-c4ccccc4)nc4c(N5CC6CC(C5)O6)nccn34)ccc2N1 [Example 79, 5-[8-(6-Oxa-3-azabicyclo[3.1.1]heptan-3-yl)-2-phenyl-imidazo[1,2-a]pyrazin-3-yl]indolin-2-one]	0.501
CC(C)Oc1nccc2c(-c3ccc4c(c3)CC(=O)N4)c(-c3ccccc3)nn12 [Example 194, 5-(7-Isopropoxy-2-phenyl-pyrazolo[1,5-c]pyrimidin-3-yl)indolin-2-one]	31.6
CO[C@H]1CCN(c2nccc3c(-c4ccc5c(c4)CC(=O)N5)c(-c4ccccc4)nn23)C1 [Example 197, 5-[7-[(3S)-3-Methoxypyrrolidin-1-yl]-2-phenyl-pyrazolo[1,5-c]pyrimidin-3-yl]indolin-2-one]	1.26
CC(=O)N1CC=C(c2nccn3c(-c4ccc(O)cc4)c(-c4ccc(F)cc4)nc23)CC1 [Example 130, 1-[4-[2-(4-Fluorophenyl)-3-(4-hydroxyphenyl)imidazo[1,2-a]pyrazin-8-yl]-3,6-dihydro-2H-pyridin-1-yl]ethanone]	158
CN1CCN(c2nccn3c(-c4ccc(O)cc4)c(-c4ccc(F)cc4)nc23)CC1 [Example 6, 4-[2-(4-Fluorophenyl)-8-(4-methylpiperazin-1-yl)imidazo[1,2-a]pyrazin-3-yl]phenol]	501
